Laboratory results as given in patent US20260184700A1, “PDK1 REGULATORY COMPOUND AND COMPOSITION CONTAINING THE SAME” (PROVIBIO CO., LTD., priority 2024, published 2026).

Assays:
[1] = test system: phospho-PDK1 in SU-DHL-8 cells; test: PDK1 phosphorylation (pPDK1) by flow cytometry in SU-DHL-8 cells; type: cell-based, human; conditions: SU-DHL-8, 24 hours, pPDK1-PE flow cytometry, vs control group
Protocol: SU-DHL-8 cells were cultured in RPMI-1640 medium (containing 10% FBS, 100 U/mL penicillin, and 100 μg/mL streptomycin), and the cell concentration was adjusted to 1×10^6 cells/mL and seeded into a 12-well plate. After stabilizing the cells, the compound of the present invention was added, and the cells were cultured for 24 hours.
After drug treatment, the cells were harvested, and the Fc receptor blocking process was performed. The cells were then fixed and permeabilized using the Intracellular Staining Kit (Cat. No. BD554715) from BD Biosciences. Subsequently, the intracellular pPDK1 was stained using the pPDK1-PE fluorescently labeled antibody (BD Biosciences).
Referring to the figure, the vertical axis represents the phosphorylation level of PDK1 (phospho-PDK1 expression level), and the horizontal axis denotes the concentration-dependent treatment conditions of each compound.

[2] = test system: bleomycin-treated Balb/c mice; test: Bleomycin-induced pulmonary fibrosis animal model; type: in vivo, mouse; conditions: bleomycin mice lung, vs BLM-treated group
Text: To evaluate the therapeutic efficacy of the compound according to the present invention against pulmonary fibrosis, an animal model of pulmonary fibrosis induced by bleomycin intratracheal administration was established.
For this purpose, 8-week-old male Balb/c mice were subjected to general anesthesia using an inhalation anesthetic (2-3% isoflurane in oxygen), followed by disinfection of the neck region, skin incision, and exposure of the trachea.
Bleomycin (Sigma-Aldrich, USA) was directly administered into the trachea at a concentration of 5 mg/kg in a solution of 100 μL.
Two days prior to Bleomycin administration, the compound of the present invention or the comparative drug was administered intraperitoneally at the specified concentration and dose, and the administration was continued once daily for a total of 14 days.
The experimental groups included Normal, Bleomycin alone (BLM), and BLM plus the compound of the present invention (BLM+GO88, 0.2 mg/kg).
Ten days later, the mice were euthanized humanely using carbon dioxide gas, the trachea was incised, and PBS was injected into the trachea to remove blood from the lungs.
The lung tissue washed with PBS was excised, fixed in 4% paraformaldehyde solution for 24 hours, and then paraffin blocks and tissue sections were prepared. The prepared sections were subjected to pathological analysis using H & E, Masson's trichrome, and Sirius red staining.
Additionally, immunohistochemical (IHC) staining was performed for α-SMA (α-smooth muscle actin), an indicator of lung fibroblast activation.

[3] = test system: NHDF (Normal Human Dermal Fibroblast) cells; test: Doxorubicin-induced aging NHDF cell model, SA-β-gal and Ki-67; type: cell-based; conditions: Doxorubicin (100 ng/ml) and IGF-1 (100 ng/ml), GO15F 0.01, 1 μM, 7 days
Protocol: After pre-incubation, the medium was removed, and the cells were cultured for 7 days in medium containing Doxorubicin (100 ng/ml) and IGF-1 (100 ng/ml) with GO15F. During this process, the medium was replaced with fresh medium every 2 days. The cultured cells were washed with PBS, fixed with 1× fixation buffer for 15 minutes, washed again with PBS, and then 300 μL of 1× working SA-β-gal buffer was added to each well. The cells were incubated at 37° C. for 24 hours. After the reaction was terminated, the cells were washed with PBS, and the fluorescence intensity of β-gal-positive cells stained blue was observed and photographed using a light microscope. Additionally, to investigate the effect of the compound (GO15F) of the present invention on proliferation activity in aging-induced NHDF (Normal Human Dermal Fibroblast) cells, Ki-67 expression was measured via FACS analysis. First, NHDF cells were seeded at 1×10^4 cells per well in a 12-well plate and stabilized for 24 hours. Subsequently, the cells were pre-incubated with GO15F at a concentration of 0.01 μM for 24 hours. After pre-incubation, the medium was removed, and GO15F (0.01 μM) was added to the medium containing Doxorubicin (100 ng/ml) and IGF-1 (100 ng/ml), followed by incubation for 7 days with fresh medium replaced every 2 days. […]

MRL/lpr mice = test: Lupus animal model (MRL/lpr mice); type: in vivo, mouse
Text: The MRL/MpJ-Faslpr/J (Hereinafter Referred to as “MRL/lpr”) used in this experiment is one of the representative animal models for systemic lupus erythematosus (SLE), known to produce various autoantibodies, including antinuclear antibodies, due to the lpr (lymphoproliferation) gene.
In this invention, the period up to 9 weeks of age was considered the pre-disease stage, and the period after 23 weeks of age was considered the post-disease stage, and efficacy verification experiments using this model were conducted.
MRL/lpr mice were imported from The Jackson Laboratory and acclimatized for one week in an SPF (Specific Pathogen Free) facility maintained at a temperature of 21-24° C., humidity of 40-60%, and a 12-hour light-dark cycle (lights on at 7:00 AM, lights off at 7:00 PM). […]
The serum separated at the time of necropsy of the lupus animal model was analyzed using the ‘IgG (Total) Mouse Uncoated ELISA Kit (Invitrogen, Cat. #88-50400)’ to measure the concentration of total IgG.
Capture antibody (anti-mouse IgG) diluted 1/250 in coating buffer was added to each well of a 96-well plate (Nunc™ MaxiSorp™ ELISA Plates, Uncoated, BioLegend, Cat. #423501) at 100 μl per well, and the plate was incubated at 4° C. for 16 hours.
To investigate the effect of GO15F administration on changes in the ratio of immune cells in the spleen of a lupus animal model, the spleens of mice administered each compound were excised, cells were extracted, and the cells were suspended in MACS buffer (autoMACS Washing Solution, Miltenyi Biotec., Cat. #130-092-987).
For flow cytometry analysis, FACS tubes (5 mL round tubes, Falcon, Cat. #352052) were used. To prevent non-specific binding of antibodies, 1 μg/mL of anti-mouse CD16/CD32 (InVivoPlus anti-mouse CD16/CD32, BioXCell, Cat. #BP0307) for 30 minutes to prevent non-specific binding of the antibody, then centrifuge at 1,500 rpm for 5 minutes and resuspend in 100 μL of MACS buffer.
For B cells, each FACS tube was stained with 1 μg/mL of FITC-conjugated anti-B220 antibody (eBioscience™, Cat. #11-0452-81) at 4° C. for 30 minutes, then washed with 2 mL of MACS buffer.
For T cells, each FACS tube was stained with 1 μg/mL PerCP-Cy5.5-conjugated anti-CD3 (Biolegend, Cat. #100218) at 4° C. for 30 minutes.
For macrophages, each FACS tube was stained with 1 μg/mL of PE-conjugated anti-CD11b antibody (Biolegend, Cat. #101207) and PerCP-Cy5.5-conjugated anti-F4/80 (Biolegend, Cat. #123128) and incubated at 4° C. for 30 minutes. The tubes were then washed with 2 mL of MACS buffer.
To investigate the effects of compound GO15F according to the present invention on systemic immune responses in a lupus animal model, gene expression analysis of cytokines in kidney tissue was performed as described in (1).
Each kidney tissue was used to isolate total RNA using TRIzol™ (Invitrozen, Cat. #15596018). RNA from each mouse was quantified at 1 μg using a micro-quantitative spectrophotometer (ThermoFisher Scientific, ND2000) and cDNA was synthesized.
The synthesized cDNA from each mouse was quantified to a concentration of 50 ng using a micro-quantitative spectrophotometer, and qPCR was performed for the cytokines ‘IL-2, IL-6, IL-10, IL-17, TNF-α, IFN-γ’ using a SYBR green probe (CFX96, BIO-RAD).
To investigate the effects of drug administration on renal tissue in MRL/lpr mice, the tissue was fixed in 10% neutral buffered formalin at room temperature, followed by stepwise ethanol penetration for dehydration. The tissue was then embedded in xylene and paraffin.
The blocked tissues were sectioned into 4 μm thick slices using a microtome, followed by deparaffinization, hydration, and staining.
Hematoxylin & Eosin staining, PAS staining, and Masson trichrome staining were performed for pathological evaluation of the tissues. […]

[4] = MRL/lpr mice, serum at necropsy, ELISA, vs control group

SMILES: Nc1ncccc1C(=O)NCCCCCCCCCCCCF [Compound 57, 2-Amino-N-(12-fluoro-dodecyl)-nicotinamide]
- PDK1 phosphorylation (phospho-PDK1 expression level) [1]: inhibitory effect on PDK1 phosphorylation
- collagen deposition (Masson's trichrome and Sirius red staining) [2]: significantly reduced
- expression of α-SMA (IHC) [2]: significantly suppressed
- number of β-gal-positive cells [3]: decreased
- hair growth on the facial region (MRL/lpr mice; 41-week-old female MRL/lpr mice, GO15F (30 mg/kg), GO48 (1 mg/kg), GO88 (0.5 mg/kg) intraperitoneally once daily): hair growth was confirmed
- renal pathological tissue (glomerular capillary loops) (MRL/lpr mice; MRL/lpr mice, H&E, PAS, Masson trichrome staining): glomerular capillary loops were well maintained
- B cells, T cells, and macrophages in the spleen (MRL/lpr mice; MRL/lpr mice, flow cytometry (B220, CD3, CD11b/F4/80)): reduced the increased B cells, T cells, and macrophages
- IgG deposition in kidney tissue (MRL/lpr mice; MRL/lpr mice, immunofluorescence staining): significantly lower
- concentration of anti-dsDNA IgG in the blood (MRL/lpr mice; [4]): significantly lower
- total IgG concentration in the blood (MRL/lpr mice; [4]): significantly lower
- protein concentration in urine (MRL/lpr mice; MRL/lpr mice, weekly urine, Bradford, vs control group): significantly lower than that in the control group
